From patent US10570097B2, “Antimicrobial imidazolium compounds” (AGENCY FOR SCIENCE, TECHNOLOGY AND RESEARCH, priority 2014, dated 2020)

Columns and labels:
E. coli [1] = assay: Time kill kinetics; format: cell-based, Escherichia coli; details: E. coli, 4MIC, two minutes
Protocol: Time kill studies of the soligome compounds against E. coli were also studied. The experimental setup for time kill kinetics was similar to the set up for MBC determination. The microbes were treated with oligomer compounds at 4MIC concentration, and samples were taken out of each well at 2 minutes. 500 μl of cell suspension was removed, rescued by a series of 10-fold dilutions with growth medium, and kept on ice until plating. For plating, 50 μl to 200 μl of the diluted samples was spread on growth medium agar plates and colonies were counted after overnight incubation at 37° C.

[2] = Gelling properties in solvents (tube inversion test); format: physicochemical
Protocol: Gels were prepared by weighing the imidazolium oligomer compounds directly into 4 mL glass vials and subsequently adding a known weight or volume of the solvent. The vials containing both the imidazolium and the solvent were either vortexed or sonicated to ensure that the imidazolium was dissolved and dispersed thoroughly before being placed in a 4° C. fridge overnight. The tube inversion test method was used to examine gel formation in different solvents.

[3] = test system: rat red blood cells (RBCs); assay: Hemolysis; format: cell-based; details: lowest concentration that induces 10% or more hemolysis; rat RBCs, 1 h, 37° C.; maximum tested 100,000 ppm
Protocol: Before these materials can be used in systemic applications, selectivity of these materials for microbial cells over mammalian cells should also be considered. Such selectivity is often determined by observation of hemolysis. Hemolysis was performed in the following manner, fresh rat red blood cells (RBCs) were diluted with PBS buffer to give an RBC stock suspension (4 vol % blood cells). A 100 μL aliquot of RBC stock was added to a 96-well plate containing […] oligomer compound stock solutions of various concentrations (serial 2-fold dilution in PBS). After 1 h incubation at 37° C., The contents of each well was pipetted into a microcentrifuge tube and then centrifuged at 4000 rpm for 5 min. Hemolytic activity was determined as a function of hemoglobin release by measuring OD576 of […] of the supernatant. A control solution that contained only PBS was used as a reference for 0% hemolysis. 100% hemolysis was measured by adding 0.5% Triton-X to the RBCs. [formula] The selectivity of the materials was also further assessed, by calculating the selectivity indices (SI), a measure and a comparison of safety and efficacies of each oligomer compound. […] Herein, the more stringent control of HC10 value was chosen over the HC50 value often reported in literature.

[4] = Critical micellar concentration (pyrene fluorescent probe); format: physicochemical; details: FIG. 4, deionized water
Protocol: The CMC values of the oligomer compounds were determined in both deionised (DI) water and PBS, using a LS50B luminescence spectrometer (Perkin Elmer, United States) and employing pyrene as a fluorescent probe. A known weight of the oligomer compound was dissolved in either 2 mL of DI water or PBS in a 4 mL glass vial and serial dilutions were effected. 10 μL of pyrene stock solution in acetone (6.16×10^-5 M) was added to each vial containing 1 mL of a known concentration of the oligomer compound, and the acetone was then evaporated at room temperature. The solution was allowed to equilibrate overnight and the final concentration of pyrene in each vial was 6.16×10^-7 M. The excitation spectra of the solutions were scanned from 300 to 360 nm with an emission wavelength of 395 nm, and both the excitation and emission bandwidths were set at 2.5 nm. The intensity ratios ([…]/[…]) were plotted against polymer concentration. The CMC value was given by the intersection of the tangent to the curve at the inflection and the tangent of the points at low polymer concentrations.

E. coli [5] = assay: Minimum inhibitory concentration by microdilution assay; format: cell-based, Escherichia coli (ATCC 25922); details: E. coli, 37° C., 24 h
Protocol: (§1) Staphylococcus aureus (ATCC 6538, gram-positive), Escherichia coli (ATCC 25922, gram-negative), Pseudomonas aeruginosa (gram-negative), and Candida albicans (ATCC 10231, yeast) were used as representative microorganisms to challenge the antimicrobial functions of the imidazolium salts. All bacteria and yeast were stored frozen at −80° C., and were grown overnight at 37° C. in Tryptic Soy broth (TSB) prior to experiments. Yeast was grown overnight at 22° C. in Yeast Mold (YM) broth. Subsamples of these cultures were grown for 3 h further and diluted to give an optical density value of 0.07 at 600 nm, corresponding to 3×10^8 CFU mL^−1 (MacFarland's Standard).
(§2) The oligomer compounds were dissolved in PBS at a concentration of 1 mg mL^1 and the minimal inhibitory concentrations (MICs) were determined by microdilution assay. Typically, a 100 μL microbial solutions (containing 3×10^8 cells mL^−1) were added to 100 μL of PBS containing the test imidazolium salts (normally ranging from […] in serial two-fold dilutions) in each well of the 96-well microtiter plate. The plates were incubated at 37° C. for 24 h with shaking at 300 rpm, with monitoring at the 2, 4, 6, 8, and 24 h time points. […] Broth and PBS solution containing microbial cells alone were used as negative controls, and experiments were run in triplicates.

C. Albicans = assay: as above; format: cell-based, Candida albicans (ATCC 10231); details: 24 h
Protocol: as §1, §2

P. aeruginosa = assay: as above; format: cell-based, Pseudomonas aeruginosa; details: 37° C., 24 h
Protocol: as §1, §2

[6] = test system: 4 microbes (S. aureus, E. coli, P. aeruginosa, C. Albicans); assay: MIC over the 4 microbes tested (geometric mean); format: cell-based; details: geometric mean of the MICs of the 4 microbes
Protocol: Staphylococcus aureus (ATCC 6538, gram-positive), Escherichia coli (ATCC 25922, gram-negative), Pseudomonas aeruginosa (gram-negative), and Candida albicans (ATCC 10231, yeast) were used as representative microorganisms to challenge the antimicrobial functions of the imidazolium salts. All bacteria and yeast were stored frozen at −80° C., and were grown overnight at 37° C. in Tryptic Soy broth (TSB) prior to experiments. Yeast was grown overnight at 22° C. in Yeast Mold (YM) broth. […] Typically, a 100 μL microbial solutions (containing 3×10^8 cells mL^−1) were added to 100 μL of PBS containing the test imidazolium salts (normally ranging from […] in serial two-fold dilutions) in each well of the 96-well microtiter plate. The plates were incubated at 37° C. for 24 h with shaking at 300 rpm, with monitoring at the 2, 4, 6, 8, and 24 h time points. […] Broth and PBS solution containing microbial cells alone were used as negative controls, and experiments were run in triplicates. The selectivity of the materials was also further assessed, by calculating the selectivity indices (SI), a measure and a comparison of safety and efficacies of each oligomer compound. […] Herein, the more stringent control of HC10 value was chosen over the HC50 value often reported in literature.

S. aureus [7] = assay: Minimum inhibitory concentration by microdilution assay; format: cell-based, Staphylococcus aureus (ATCC 6538); details: 37° C., 24 h
Protocol: as §1, §2

S. aureus [8] = assay: Minimum biocidal concentration / killing efficiency (24 h); format: cell-based, Staphylococcus aureus
Protocol: (§3) To determine the minimum bacteriocidal concentration, the microbes were inoculated and prepared according to the procedure for MIC determination. […] The bacterial samples were taken out of each well after the aforementioned period, and subjected to a series of 10-fold dilutions. 20 uL of the diluted sample was then streaked across an agar plate, before incubation of the plate at 37° C. for 24 h. Colony forming units (CFU) were counted after overnight incubation, and the results were calculated according to the formula: [formula]

E. coli [9] = assay: as above; format: cell-based, Escherichia coli
Protocol: as §3

With `CCCCCCCC[n+]1ccn(Cc2ccc(C[n+]3ccn(Cc4ccc(C[n+]5ccn(Cc6ccccc6Cn6cc[n+](Cc7ccc(Cn8cc[n+](Cc9ccc(Cn%10cc[n+](CCCCCCCC)c%10)cc9)c8)cc7)c6)c5)cc4)c3)cc2)c1.[Br-].[Br-].[Cl-].[Cl-].[Cl-].[Cl-]` [Compound 2] as the molecule, how does the “% kill” value (E. coli [1]) read?
Its value is over 99.9%.

And the Log reduction (E. coli [1])?
Its Log reduction is 3.11.

What about the State in solvent ([2]; Acetone) of the same molecule?
Its State in solvent is “Insoluble”.

What about the State in solvent ([2]; Acetonitrile) of the same molecule?
The State in solvent was “Insoluble”.

And the “Concentration to form gel” value ([2]; EtOH)?
The value was “(11 wt %)”.

And the State in solvent ([2]; EtOH)?
Its State in solvent is “Gel”.

And the State in solvent ([2]; Ethylene glycol)?
The State in solvent was “Solution”.

And the State in solvent ([2]; Glycerol)?
The State in solvent was “Solution”.

What about the “Concentration to form gel” value ([2]; nBuOH) of the same molecule?
Its value is “(11.3 wt %)”.

What about the State in solvent ([2]; nBuOH) of the same molecule?
Its State in solvent is “Gel”.

What about the “Concentration to form gel” value ([2]; nPrOH) of the same molecule?
The value was “(9.8 wt %)”.

And the State in solvent ([2]; nPrOH)?
Its State in solvent is “Gel”.

And the HC10 [3]?
Its HC10 is 12500 ppm.

What about the “sharp point of inflection indicating the critical micellar concentrations” value [4] of the same molecule?
The value was “not observed”.

And the “MIC E. coli” value (E. coli [5])?
Its value is 8 µg/mL.

What about the “MIC C.A.” value (C. Albicans) of the same molecule?
Its value is 16 µg/mL.

What about the “MIC P.A.” value (P. aeruginosa) of the same molecule?
Its value is 16 µg/mL.

What about the “MIC GM” value [6] of the same molecule?
The value was 9.51 µg/mL.

What about the “MIC S.A.” value (S. aureus [7]) of the same molecule?
The value was 4 µg/mL.

What about the “% killing” value (S. aureus [8]; 0.5 MIC) of the same molecule?
The value was 98.03%.

What about the Log reduction (S. aureus [8]; 0.5 MIC) of the same molecule?
Its Log reduction is 1.71 ± 0.032.

What about the “% killing” value (S. aureus [8]; 2 MIC) of the same molecule?
The value was over 99.999%.

And the Log reduction (S. aureus [8]; 2 MIC)?
The Log reduction was 13.38 ± 0.337.

What about the “% killing” value (S. aureus [8]; MIC) of the same molecule?
The value was over 99.999%.

What about the Log reduction (S. aureus [8]; MIC) of the same molecule?
Its Log reduction is 11.82 ± 0.067.

And the “% killing” value (E. coli [9]; 0.5 MIC)?
The value was 99.779%.

And the Log reduction (E. coli [9]; 0.5 MIC)?
The Log reduction was 2.67 ± 0.128.

What about the “% killing” value (E. coli [9]; 2 MIC) of the same molecule?
The value was over 99.999%.

What about the Log reduction (E. coli [9]; 2 MIC) of the same molecule?
The Log reduction was 7.19 ± 0.149.

And the “% killing” value (E. coli [9]; MIC)?
The value was over 99.999%.

What about the Log reduction (E. coli [9]; MIC) of the same molecule?
Its Log reduction is 7.11 ± 0.123.
